Patent publication US9340590B2 (priority 2011, dated 2016)
Read-outs that look alike come from different tables or passages of the source. Positions of bridges follow the written chain, without caps; N, C: chain ends. Residues, ends and D or L forms follow the SMILES beside them.

Key:
hNav1.3 = hNav1.3 (Homo sapiens, UniProt Q9NY46); experiment: cell-based; conditions: IonWorks Quattro, read-out: IWQ Use Nav1.3
hNav1.5 = hNav1.5 (Homo sapiens, UniProt Q14524); experiment: cell-based
[1] = IonWorks Quattro, Use, read-out: IWQ Use Nav1.5

hNav1.3, sequence (Q9NY46 whole entry, looked up): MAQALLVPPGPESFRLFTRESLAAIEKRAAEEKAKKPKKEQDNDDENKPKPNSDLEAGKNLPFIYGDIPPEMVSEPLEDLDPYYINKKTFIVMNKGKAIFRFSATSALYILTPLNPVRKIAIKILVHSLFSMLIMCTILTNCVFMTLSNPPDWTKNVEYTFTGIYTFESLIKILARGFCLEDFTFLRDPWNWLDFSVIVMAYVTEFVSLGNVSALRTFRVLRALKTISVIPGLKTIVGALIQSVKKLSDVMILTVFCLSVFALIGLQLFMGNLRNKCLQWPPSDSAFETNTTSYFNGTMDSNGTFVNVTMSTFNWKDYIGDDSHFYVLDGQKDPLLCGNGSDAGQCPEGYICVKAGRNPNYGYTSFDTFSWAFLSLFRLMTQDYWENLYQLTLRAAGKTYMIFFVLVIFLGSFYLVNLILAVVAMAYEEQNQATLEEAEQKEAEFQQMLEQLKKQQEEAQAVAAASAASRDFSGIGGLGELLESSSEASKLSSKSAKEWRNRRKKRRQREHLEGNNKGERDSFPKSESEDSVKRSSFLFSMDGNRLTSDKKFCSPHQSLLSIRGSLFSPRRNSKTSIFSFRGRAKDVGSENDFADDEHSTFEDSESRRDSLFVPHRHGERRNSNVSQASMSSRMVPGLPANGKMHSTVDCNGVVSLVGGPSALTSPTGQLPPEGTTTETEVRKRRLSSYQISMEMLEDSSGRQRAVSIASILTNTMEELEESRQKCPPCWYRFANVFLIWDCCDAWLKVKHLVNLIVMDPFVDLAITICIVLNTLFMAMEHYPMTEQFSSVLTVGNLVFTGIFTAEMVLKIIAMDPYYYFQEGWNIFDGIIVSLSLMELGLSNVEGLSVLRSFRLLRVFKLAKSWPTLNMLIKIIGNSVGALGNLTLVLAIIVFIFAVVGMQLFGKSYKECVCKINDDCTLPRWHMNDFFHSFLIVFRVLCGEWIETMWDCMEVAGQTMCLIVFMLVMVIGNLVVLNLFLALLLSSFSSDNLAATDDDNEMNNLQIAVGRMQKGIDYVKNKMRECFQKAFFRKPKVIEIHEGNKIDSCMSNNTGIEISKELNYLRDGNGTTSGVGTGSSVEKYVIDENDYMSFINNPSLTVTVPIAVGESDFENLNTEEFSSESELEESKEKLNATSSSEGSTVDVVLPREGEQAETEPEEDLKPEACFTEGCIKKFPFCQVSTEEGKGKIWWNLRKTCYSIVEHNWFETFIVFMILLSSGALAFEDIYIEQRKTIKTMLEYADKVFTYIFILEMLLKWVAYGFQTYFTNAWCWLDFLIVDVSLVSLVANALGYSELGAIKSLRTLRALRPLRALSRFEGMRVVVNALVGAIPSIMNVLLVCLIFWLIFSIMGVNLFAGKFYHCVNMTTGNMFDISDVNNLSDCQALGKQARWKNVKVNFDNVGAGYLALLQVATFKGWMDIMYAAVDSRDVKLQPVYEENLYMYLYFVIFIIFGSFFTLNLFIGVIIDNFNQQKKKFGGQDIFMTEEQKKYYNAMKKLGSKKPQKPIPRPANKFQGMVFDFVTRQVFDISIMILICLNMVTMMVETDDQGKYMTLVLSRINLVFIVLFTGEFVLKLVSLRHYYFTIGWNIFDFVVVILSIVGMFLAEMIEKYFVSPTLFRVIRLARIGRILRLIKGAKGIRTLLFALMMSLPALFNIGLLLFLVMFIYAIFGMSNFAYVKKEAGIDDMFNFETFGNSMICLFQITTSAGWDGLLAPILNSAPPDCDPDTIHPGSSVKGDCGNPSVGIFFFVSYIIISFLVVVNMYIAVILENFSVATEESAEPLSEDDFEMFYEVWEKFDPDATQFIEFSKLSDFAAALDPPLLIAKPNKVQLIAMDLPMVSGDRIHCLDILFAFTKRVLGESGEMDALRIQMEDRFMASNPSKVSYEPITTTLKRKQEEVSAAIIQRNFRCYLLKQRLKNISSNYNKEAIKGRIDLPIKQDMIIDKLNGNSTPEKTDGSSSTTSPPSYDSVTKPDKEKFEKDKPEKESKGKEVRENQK
hNav1.5, sequence (Q14524 whole entry, looked up): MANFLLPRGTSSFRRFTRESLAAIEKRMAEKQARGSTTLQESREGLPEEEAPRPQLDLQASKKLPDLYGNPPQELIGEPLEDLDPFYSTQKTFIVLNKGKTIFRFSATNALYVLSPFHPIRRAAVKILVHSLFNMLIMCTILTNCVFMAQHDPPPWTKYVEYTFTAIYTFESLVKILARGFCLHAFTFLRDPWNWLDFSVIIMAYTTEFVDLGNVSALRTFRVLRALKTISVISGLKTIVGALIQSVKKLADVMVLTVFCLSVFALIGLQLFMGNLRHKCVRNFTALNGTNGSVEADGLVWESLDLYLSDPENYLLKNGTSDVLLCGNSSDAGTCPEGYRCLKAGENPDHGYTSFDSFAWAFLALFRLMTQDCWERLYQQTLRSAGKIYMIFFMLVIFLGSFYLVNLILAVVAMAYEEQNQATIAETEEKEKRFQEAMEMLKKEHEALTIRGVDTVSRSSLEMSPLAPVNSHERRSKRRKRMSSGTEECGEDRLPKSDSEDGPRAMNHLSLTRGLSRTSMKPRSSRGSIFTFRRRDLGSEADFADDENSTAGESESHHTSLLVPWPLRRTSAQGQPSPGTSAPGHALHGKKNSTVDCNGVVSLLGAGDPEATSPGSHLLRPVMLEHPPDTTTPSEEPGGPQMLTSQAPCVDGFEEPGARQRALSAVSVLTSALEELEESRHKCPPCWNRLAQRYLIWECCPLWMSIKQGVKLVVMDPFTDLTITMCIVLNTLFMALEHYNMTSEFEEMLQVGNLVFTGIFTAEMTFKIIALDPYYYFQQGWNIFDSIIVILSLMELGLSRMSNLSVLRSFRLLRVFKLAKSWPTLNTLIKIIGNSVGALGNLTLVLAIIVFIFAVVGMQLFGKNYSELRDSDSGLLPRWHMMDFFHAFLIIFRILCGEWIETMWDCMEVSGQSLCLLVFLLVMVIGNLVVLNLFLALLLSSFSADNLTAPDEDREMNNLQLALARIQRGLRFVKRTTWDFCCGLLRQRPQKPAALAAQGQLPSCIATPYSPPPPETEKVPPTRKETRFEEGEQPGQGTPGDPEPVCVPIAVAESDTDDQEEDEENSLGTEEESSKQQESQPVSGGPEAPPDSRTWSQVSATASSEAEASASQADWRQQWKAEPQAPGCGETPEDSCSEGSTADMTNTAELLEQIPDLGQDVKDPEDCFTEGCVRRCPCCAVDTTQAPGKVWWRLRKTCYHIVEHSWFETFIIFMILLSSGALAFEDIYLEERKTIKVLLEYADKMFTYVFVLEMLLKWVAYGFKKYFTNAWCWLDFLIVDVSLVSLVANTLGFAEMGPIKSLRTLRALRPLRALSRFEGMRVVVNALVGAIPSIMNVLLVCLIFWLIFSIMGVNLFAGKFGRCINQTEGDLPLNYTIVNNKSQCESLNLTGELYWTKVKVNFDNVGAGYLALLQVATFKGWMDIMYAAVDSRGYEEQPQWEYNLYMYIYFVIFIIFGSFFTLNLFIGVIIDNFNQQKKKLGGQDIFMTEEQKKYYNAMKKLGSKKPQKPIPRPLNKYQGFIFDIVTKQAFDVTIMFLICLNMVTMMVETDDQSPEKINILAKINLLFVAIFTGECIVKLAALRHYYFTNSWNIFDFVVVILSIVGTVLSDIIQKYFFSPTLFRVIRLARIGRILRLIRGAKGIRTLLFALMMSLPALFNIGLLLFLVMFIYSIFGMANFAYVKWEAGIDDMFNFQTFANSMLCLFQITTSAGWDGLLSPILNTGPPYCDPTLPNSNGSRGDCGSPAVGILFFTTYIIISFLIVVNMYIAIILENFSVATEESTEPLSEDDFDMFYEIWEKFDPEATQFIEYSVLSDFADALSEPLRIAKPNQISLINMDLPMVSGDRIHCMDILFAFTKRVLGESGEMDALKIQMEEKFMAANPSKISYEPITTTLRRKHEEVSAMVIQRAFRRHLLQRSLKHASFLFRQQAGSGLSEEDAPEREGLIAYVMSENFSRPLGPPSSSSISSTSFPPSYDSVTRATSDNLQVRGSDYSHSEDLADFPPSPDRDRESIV

Work on `CC[C@H](C)[C@@H]1NC(=O)[C@@H]2CSSC[C@@H]3NC(=O)[C@H](C(C)C)NC(=O)[C@H](CC(C)C)NC(=O)[C@H](CC(N)=O)NC(=O)[C@@H]4CCCN4C(=O)[C@H](CCCNC(=N)N)NC(=O)[C@H](CSSC[C@H](NC(=O)[C@@H](N)CC(=O)O)C(=O)N[C@@H](CC(C)C)C(=O)NCC(=O)N[C@@H](Cc4ccccc4)C(=O)N[C@@H](CCSC)C(=O)N[C@@H](CCCNC(=N)N)C(=O)N[C@@H](CCCCN)C(=O)N2)NC(=O)[C@H](CSSC[C@@H](C(=O)N[C@@H](CCCCN)C(=O)N[C@@H](Cc2ccc(O)cc2)C(=O)N[C@H](C(=O)N[C@@H](Cc2ccccc2)C(N)=O)C(C)C)NC(=O)[C@H](Cc2c[nH]c4ccccc24)NC(=O)[C@H](CCCCN)NC(=O)[C@H](Cc2cnc[nH]2)NC(=O)[C@H]([C@@H](C)O)NC(=O)[C@H](CCCNC(=N)N)NC(=O)[C@H](CO)NC3=O)NC(=O)[C@H](CCCCN)NC(=O)[C@H](CC(=O)O)NC(=O)[C@H](CC(N)=O)NC(=O)[C@H](CCCCN)NC(=O)[C@@H]2CCCN2C1=O` [compound 42] (H-DCLGFMRKCIPKNDKCCRPNLVCSRTHKWCKYVF-NH2; disulfide 2-17, 9-23, 16-30) yielded an IC50 (hNav1.3; Use) of 90 nM and an IC50 (hNav1.5; IWQ Use Nav1.5 (μM)) of 6.51 µM.

`CSCC[C@@H]1NC(=O)[C@H](Cc2ccccc2)NC(=O)CNC(=O)[C@H](CC(C)C)NC(=O)[C@@H](NC(=O)[C@@H](N)CC(=O)O)CSSC[C@@H]2NC(=O)[C@@H]3CSSC[C@@H](C(=O)N[C@@H](CCCCN)C(=O)N[C@@H](Cc4ccc(O)cc4)C(=O)N[C@H](C(=O)N[C@@H](Cc4ccccc4)C(N)=O)C(C)C)NC(=O)[C@H](Cc4c[nH]c5ccccc45)NC(=O)[C@H](CCCCN)NC(=O)[C@H](Cc4cnc[nH]4)NC(=O)[C@H]([C@@H](C)O)NC(=O)[C@H](CCCNC(=N)N)NC(=O)[C@H](CO)NC(=O)[C@H](CSSC[C@H](NC(=O)[C@H](CCCCN)NC(=O)[C@H](CCCNC(=N)N)NC1=O)C(=O)N[C@@H](C)C(=O)N1CCC[C@H]1C(=O)N[C@@H](CC(=O)O)C(=O)N[C@@H](CC(N)=O)C(=O)N[C@@H](CC(=O)O)C(=O)N[C@@H](CCCCN)C(=O)N3)NC(=O)[C@H](C(C)C)NC(=O)[C@H](CC(C)C)NC(=O)[C@H](CC(N)=O)NC(=O)[C@@H]1CCCN1C(=O)[C@H](CCCNC(=N)N)NC2=O` [compound 45] (H-DCLGFMRKCAPDNDKCCRPNLVCSRTHKWCKYVF-NH2; disulfide 2-17, 9-23, 16-30) gave an IC50 (hNav1.3; Use) of 190 nM and an IC50 (hNav1.5; [1]) of 16.5 µM.

`CC[C@H](C)[C@@H]1NC(=O)[C@@H]2CSSC[C@@H]3NC(=O)[C@H](C(C)C)NC(=O)[C@H](CC(C)C)NC(=O)[C@H](CC(N)=O)NC(=O)[C@@H]4CCCN4C(=O)[C@H](CCCNC(=N)N)NC(=O)[C@H](CSSC[C@H](NC(=O)[C@@H](N)CC(=O)O)C(=O)N[C@@H](CC(C)C)C(=O)NCC(=O)N[C@@H](Cc4ccccc4)C(=O)N[C@@H](CCSC)C(=O)N[C@@H](CCCNC(=N)N)C(=O)N[C@@H](CCCCN)C(=O)N2)NC(=O)[C@H](CSSC[C@@H](C(=O)N[C@@H](CCCCN)C(=O)N[C@@H](Cc2ccc(O)cc2)C(=O)N[C@H](C(=O)N[C@@H](Cc2ccccc2)C(N)=O)C(C)C)NC(=O)[C@H](Cc2c[nH]c4ccccc24)NC(=O)[C@H](CCCCN)NC(=O)[C@H](Cc2cnc[nH]2)NC(=O)[C@H]([C@@H](C)O)NC(=O)[C@H](CCCNC(=N)N)NC(=O)[C@H](CO)NC3=O)NC(=O)[C@H](CCCCN)NC(=O)[C@H](CC(=O)O)NC(=O)[C@H](CCCCN)NC(=O)[C@H](CC(=O)O)NC(=O)[C@@H]2CCCN2C1=O` [compound 48] (H-DCLGFMRKCIPDKDKCCRPNLVCSRTHKWCKYVF-NH2; disulfide 2-17, 9-23, 16-30) was tested, and the IC50 (hNav1.3; Use) was 130 nM and the IC50 (hNav1.5; [1]) was 9.72 µM.

`CC[C@H](C)[C@@H]1NC(=O)[C@@H]2CSSC[C@@H]3NC(=O)[C@H](C(C)C)NC(=O)[C@H](CC(C)C)NC(=O)[C@H](CC(N)=O)NC(=O)[C@H](CCCCN)NC(=O)[C@H](CCCNC(=N)N)NC(=O)[C@H](CSSC[C@H](NC(=O)[C@@H](N)CC(=O)O)C(=O)N[C@@H](CC(C)C)C(=O)NCC(=O)N[C@@H](Cc4ccccc4)C(=O)N[C@@H](CCSC)C(=O)N[C@@H](CCCNC(=N)N)C(=O)N[C@@H](CCCCN)C(=O)N2)NC(=O)[C@H](CSSC[C@@H](C(=O)N[C@@H](CCCCN)C(=O)N[C@@H](Cc2ccc(O)cc2)C(=O)N[C@H](C(=O)N[C@@H](Cc2ccccc2)C(N)=O)C(C)C)NC(=O)[C@H](Cc2c[nH]c4ccccc24)NC(=O)[C@H](CCCCN)NC(=O)[C@H](Cc2cnc[nH]2)NC(=O)[C@H]([C@@H](C)O)NC(=O)[C@H](CCCNC(=N)N)NC(=O)[C@H](CO)NC3=O)NC(=O)[C@H](CCCCN)NC(=O)[C@H](CC(=O)O)NC(=O)[C@H](CC(N)=O)NC(=O)[C@H](CC(=O)O)NC(=O)[C@@H]2CCCN2C1=O` [compound 50] (H-DCLGFMRKCIPDNDKCCRKNLVCSRTHKWCKYVF-NH2; disulfide 2-17, 9-23, 16-30) showed an IC50 (hNav1.3; Use) of 180 nM and an IC50 (hNav1.5; [1]) of 10.6 µM.

In the case of `CC[C@H](C)[C@@H]1NC(=O)[C@@H]2CSSC[C@@H]3NC(=O)[C@H](C(C)C)NC(=O)[C@H](CC(C)C)NC(=O)[C@H](CC(N)=O)NC(=O)[C@@H]4CCCN4C(=O)[C@H](CCCNC(=N)N)NC(=O)[C@H](CSSC[C@H](NC(=O)[C@@H](N)CC(=O)O)C(=O)N[C@@H](CC(C)C)C(=O)NCC(=O)N[C@@H](Cc4ccccc4)C(=O)N[C@@H](CCSC)C(=O)N[C@@H](CCCNC(=N)N)C(=O)N[C@@H](CCCCN)C(=O)N2)NC(=O)[C@H](CSSC[C@@H](C(=O)N[C@@H](CCCCN)C(=O)N[C@@H](Cc2ccc(O)cc2)C(=O)N[C@H](C(=O)N[C@@H](Cc2ccccc2)C(N)=O)C(C)C)NC(=O)[C@H](Cc2c[nH]c4ccccc24)NC(=O)[C@H](CCCCN)NC(=O)[C@H](Cc2cnc[nH]2)NC(=O)[C@H]([C@@H](C)O)NC(=O)[C@H](CCCCN)NC(=O)[C@H](CO)NC3=O)NC(=O)[C@H](CCCCN)NC(=O)[C@H](CC(=O)O)NC(=O)[C@H](CC(N)=O)NC(=O)[C@H](CC(=O)O)NC(=O)[C@@H]2CCCN2C1=O` [compound 53] (H-DCLGFMRKCIPDNDKCCRPNLVCSKTHKWCKYVF-NH2; disulfide 2-17, 9-23, 16-30), the IC50 (hNav1.3; Use) is reported as 240 nM and the IC50 (hNav1.5; IWQ Use Nav1.5 (μM)) is reported as 15.2 µM.

`CC[C@H](C)[C@@H]1NC(=O)[C@@H]2CSSC[C@@H]3NC(=O)[C@H](C(C)C)NC(=O)[C@H](CC(C)C)NC(=O)[C@H](CC(N)=O)NC(=O)[C@@H]4CCCN4C(=O)[C@H](CCCNC(=N)N)NC(=O)[C@H](CSSC[C@H](NC(=O)[C@@H](N)CC(=O)O)C(=O)N[C@@H](CC(C)C)C(=O)NCC(=O)N[C@@H](Cc4ccccc4)C(=O)N[C@@H](CCSC)C(=O)N[C@@H](CCCNC(=N)N)C(=O)N[C@@H](CCCCN)C(=O)N2)NC(=O)[C@H](CSSC[C@@H](C(=O)N[C@@H](CCCCN)C(=O)N[C@@H](Cc2ccc(O)cc2)C(=O)N[C@H](C(=O)N[C@@H](Cc2ccccc2)C(N)=O)C(C)C)NC(=O)[C@H](Cc2c[nH]c4ccccc24)NC(=O)[C@H](CCCCN)NC(=O)[C@H](Cc2cnc[nH]2)NC(=O)[C@H]([C@@H](C)O)NC(=O)[C@H](CCCNC(=N)N)NC(=O)[C@H](CO)NC3=O)NC(=O)[C@H](CCCCN)NC(=O)[C@H](CC(=O)O)NC(=O)[C@H](CC(N)=O)NC(=O)[C@H](CCCNC(=N)N)NC(=O)[C@@H]2CCCN2C1=O` [compound 67] (H-DCLGFMRKCIPRNDKCCRPNLVCSRTHKWCKYVF-NH2; disulfide 2-17, 9-23, 16-30) showed an IC50 (hNav1.3; Use) of 140 nM and an IC50 (hNav1.5; [1]) of 5 µM.

For `CC[C@H](C)[C@@H]1NC(=O)[C@@H]2CSSC[C@@H]3NC(=O)[C@H](C(C)C)NC(=O)[C@H](CC(C)C)NC(=O)[C@H](CCCNC(=N)N)NC(=O)[C@@H]4CCCN4C(=O)[C@H](CCCNC(=N)N)NC(=O)[C@H](CSSC[C@H](NC(=O)[C@@H](N)CC(=O)O)C(=O)N[C@@H](CC(C)C)C(=O)NCC(=O)N[C@@H](Cc4ccccc4)C(=O)N[C@@H](CCSC)C(=O)N[C@@H](CCCNC(=N)N)C(=O)N[C@@H](CCCCN)C(=O)N2)NC(=O)[C@H](CSSC[C@@H](C(=O)N[C@@H](CCCCN)C(=O)N[C@@H](Cc2ccc(O)cc2)C(=O)N[C@H](C(=O)N[C@@H](Cc2ccccc2)C(N)=O)C(C)C)NC(=O)[C@H](Cc2c[nH]c4ccccc24)NC(=O)[C@H](CCCCN)NC(=O)[C@H](Cc2cnc[nH]2)NC(=O)[C@H]([C@@H](C)O)NC(=O)[C@H](CCCNC(=N)N)NC(=O)[C@H](CO)NC3=O)NC(=O)[C@H](CCCCN)NC(=O)[C@H](CC(=O)O)NC(=O)[C@H](CC(N)=O)NC(=O)[C@H](CC(=O)O)NC(=O)[C@@H]2CCCN2C1=O` [compound 69] (H-DCLGFMRKCIPDNDKCCRPRLVCSRTHKWCKYVF-NH2; disulfide 2-17, 9-23, 16-30), the IC50 (hNav1.3; Use) was 80 nM and the IC50 (hNav1.5; [1]) was 14.9 µM.

With `CC[C@H](C)[C@@H]1NC(=O)[C@@H]2CSSC[C@@H]3NC(=O)[C@H](C(C)C)NC(=O)[C@H](CC(C)C)NC(=O)[C@H](CC(N)=O)NC(=O)[C@@H]4CCCN4C(=O)[C@H](CCCNC(=N)N)NC(=O)[C@H](CSSC[C@H](NC(=O)[C@@H](N)CC(=O)O)C(=O)N[C@@H](CC(C)C)C(=O)NCC(=O)N[C@@H](Cc4ccccc4)C(=O)N[C@@H](CCSC)C(=O)N[C@@H](CCCNC(=N)N)C(=O)N[C@@H](CCCCN)C(=O)N2)NC(=O)[C@H](CSSC[C@@H](C(=O)N[C@@H](CCCCN)C(=O)N[C@@H](Cc2ccc(O)cc2)C(=O)N[C@@H](CCCNC(=N)N)C(=O)N[C@@H](Cc2ccccc2)C(N)=O)NC(=O)[C@H](Cc2c[nH]c4ccccc24)NC(=O)[C@H](CCCCN)NC(=O)[C@H](Cc2cnc[nH]2)NC(=O)[C@H]([C@@H](C)O)NC(=O)[C@H](CCCNC(=N)N)NC(=O)[C@H](CO)NC3=O)NC(=O)[C@H](CCCCN)NC(=O)[C@H](CC(=O)O)NC(=O)[C@H](CC(N)=O)NC(=O)[C@H](CC(=O)O)NC(=O)[C@@H]2CCCN2C1=O` [compound 74] (H-DCLGFMRKCIPDNDKCCRPNLVCSRTHKWCKYRF-NH2; disulfide 2-17, 9-23, 16-30) the IC50 (hNav1.3; Table 26, use, […]) was 50 nM and the IC50 (hNav1.5; Table 26, IonWorks Quattro, use, […], read-out: IWQ Use Nav1.5) was 9.55 µM.
